Numbered stars: 1 amine (or outer) side, 2 acyl side, 3 side chain; on linkers, the order of the positions; unused ones are H or OH. Bridge positions count the residues as written; N and C are the ends. Side chains are listed from the residue outwards. Peptide text beside a SMILES is read from it. * marks the point of attachment. C20 diacid = O=C(O)CCCCCCCCCCCCCCCCCCC(=O)*; γGlu = O=C(O)[C@H](CCC(=O)[*:2])N[*:1]; AEEA = NCCOCCOCC(=O)O
Molecular target: T1, human amylin receptor (amylin 3(a) receptor: human calcitonin receptor + RAMP-3) (Homo sapiens, UniProt O60896+P30988)
T1 construct: expressed in transfected cells
T1 sequence (P30988 25-474): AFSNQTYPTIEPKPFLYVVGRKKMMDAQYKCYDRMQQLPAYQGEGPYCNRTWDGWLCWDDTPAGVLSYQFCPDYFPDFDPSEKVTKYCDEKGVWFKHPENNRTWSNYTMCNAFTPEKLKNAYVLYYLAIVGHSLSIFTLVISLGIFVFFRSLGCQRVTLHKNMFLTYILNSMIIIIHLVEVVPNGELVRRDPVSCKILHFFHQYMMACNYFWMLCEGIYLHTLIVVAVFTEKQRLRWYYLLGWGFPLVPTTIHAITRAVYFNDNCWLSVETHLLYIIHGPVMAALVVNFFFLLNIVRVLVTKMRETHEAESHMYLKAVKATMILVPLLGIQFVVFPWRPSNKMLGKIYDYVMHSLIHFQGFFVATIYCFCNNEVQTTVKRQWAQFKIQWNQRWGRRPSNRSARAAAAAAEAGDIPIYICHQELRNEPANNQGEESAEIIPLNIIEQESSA
T1 sequence (O60896 24-148 partner): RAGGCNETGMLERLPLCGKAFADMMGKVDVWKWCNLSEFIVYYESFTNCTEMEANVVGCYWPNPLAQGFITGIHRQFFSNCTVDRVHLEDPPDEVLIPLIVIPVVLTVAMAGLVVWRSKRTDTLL
Experiment: Assay (II)a functional assay, human amylin receptor (CRE luciferase, BHK cells)
Assay type: cell-based

[1] = Table 6, human functional selectivity (hCTR EC50 / hAmylin-R EC50)
[2] = Table 6a, human functional selectivity (hCTR EC50 / hAmylin-R EC50), at least 5
[3] = Table 6j, hCTR funct. EC50 / hAmylin-R funct. EC50
[4] = Table 6k, hCTR funct. EC50 / hAmylin-R funct. EC50

SMILES	Ratio hCT/hAmylin funct. [1]	Ratio hCT/hAmylin funct. [2]	Ratio hCT/hAmylin funct. [3]	Ratio hCT/hAmylin funct. [4]	Ratio hCT/hAmylin funct. (hCTR funct. EC50 divided by hAmylin-R funct. EC50)	Ratio hCT/hAmylin funct. (Table 6i, hCTR funct. EC50 / hAmylin-R funct. EC50)
CC[C@H](C)[C@H](NC(=O)[C@H](C)NC(=O)CNC(=O)[C@H](Cc1ccccc1)NC(=O)[C@H](CC(N)=O)NC(=O)[C@@H]1CCCN1C(=O)[C@H](CO)NC(=O)[C@H](CO)NC(=O)[C@H](Cc1c[nH]cn1)NC(=O)[C@H](CCCNC(=N)N)NC(=O)[C@H](CC(C)C)NC(=O)[C@H](Cc1ccccc1)NC(=O)[C@H](CC(N)=O)NC(=O)[C@H](C)NC(=O)[C@H](CC(C)C)NC(=O)[C@H](CCCNC(=N)N)NC(=O)[C@H](CCC(N)=O)NC(=O)[C@@H](NC(=O)[C@H](C)NC(=O)[C@@H]1CSSC[C@H](NC(=O)[C@H](CCCCN)NC(=O)CC[C@H](NC(=O)CCCCCCCCCCCCCCCCCCC(=O)O)C(=O)O)C(=O)N[C@@H](CC(N)=O)C(=O)N[C@@H]([C@@H](C)O)C(=O)N[C@@H](C)C(=O)N[C@@H]([C@@H](C)O)C(=O)N1)[C@@H](C)O)C(=O)N1CCC[C@H]1C(=O)N[C@@H](CO)C(=O)N[C@@H](CO)C(=O)N[C@H](C(=O)N1CCC[C@H]1C(=O)N[C@H](C(=O)NCC(=O)N[C@@H](CO)C(=O)N[C@@H](CCC(=O)O)C(=O)N[C@H](C(=O)N[C@@H](Cc1ccc(O)cc1)C(N)=O)[C@@H](C)O)C(C)C)[C@@H](C)O [Example 28] ({C20 diacid-γGlu}-KCNTATCATQRLANFLRHSSPNFGAIPSSTPVGSETY-NH2; disulfide 2-7)	9.2	9.2	9.2	9.2	–	–
CC(C)C[C@H](NC(=O)[C@H](CCCNC(=N)N)NC(=O)[C@H](CCC(N)=O)NC(=O)[C@@H](NC(=O)[C@H](C)NC(=O)[C@@H]1CSSC[C@H](NC(=O)[C@@H](N)CCCCNC(=O)CC[C@H](NC(=O)CC[C@H](NC(=O)CCCCCCCCCCCCCCCCCCC(=O)O)C(=O)O)C(=O)O)C(=O)N[C@@H](CC(N)=O)C(=O)N[C@@H]([C@@H](C)O)C(=O)N[C@@H](C)C(=O)N[C@@H]([C@@H](C)O)C(=O)N1)[C@@H](C)O)C(=O)N[C@@H](C)C(=O)N[C@@H](CC(=O)O)C(=O)N[C@@H](Cc1ccccc1)C(=O)N[C@@H](CC(C)C)C(=O)N[C@@H](CCCNC(=N)N)C(=O)N[C@@H](Cc1c[nH]cn1)C(=O)N[C@@H](CO)C(=O)N[C@@H](CO)C(=O)N1CCC[C@H]1C(=O)N[C@@H](CC(N)=O)C(=O)N[C@@H](Cc1ccccc1)C(=O)NCC(=O)N[C@@H](C)C(=O)N1CCC[C@H]1C(=O)N[C@@H](CC(C)C)C(=O)N[C@@H](CO)C(=O)N[C@@H](CO)C(=O)N[C@H](C(=O)N[C@@H](CC(N)=O)C(=O)N[C@H](C(=O)NCC(=O)N[C@@H](CO)C(=O)N[C@@H](CC(=O)O)C(=O)N[C@H](C(=O)N[C@@H](Cc1ccc(O)cc1)C(N)=O)[C@@H](C)O)C(C)C)[C@@H](C)O [Example 1] (H-K([γGlu-γGlu-C20 diacid])CNTATCATQRLADFLRHSSPNFGAPLSSTNVGSDTY-NH2; disulfide 2-7; N-terminus assumed)	12.0	12.0	–	–	12.0	–
CC[C@H](C)[C@H](NC(=O)[C@H](C)NC(=O)CNC(=O)[C@H](Cc1ccccc1)NC(=O)[C@H](CC(N)=O)NC(=O)[C@@H]1CCCN1C(=O)[C@H](CO)NC(=O)[C@H](CO)NC(=O)[C@H](Cc1c[nH]cn1)NC(=O)[C@H](CCCNC(=N)N)NC(=O)[C@H](CC(C)C)NC(=O)[C@H](Cc1ccccc1)NC(=O)[C@H](CCC(=O)O)NC(=O)[C@H](C)NC(=O)[C@H](CC(C)C)NC(=O)[C@H](CCCNC(=N)N)NC(=O)[C@H](CCC(N)=O)NC(=O)[C@@H](NC(=O)[C@H](C)NC(=O)[C@@H]1CSSC[C@H](NC(=O)[C@H](CCCCN)NC(=O)CC[C@H](NC(=O)CCCCCCCCCCCCCCCCCCC(=O)O)C(=O)O)C(=O)N[C@@H](CC(N)=O)C(=O)N[C@@H]([C@@H](C)O)C(=O)N[C@@H](C)C(=O)N[C@@H]([C@@H](C)O)C(=O)N1)[C@@H](C)O)C(=O)N1CCC[C@H]1C(=O)N[C@@H](CO)C(=O)N[C@@H](CO)C(=O)N[C@H](C(=O)N[C@@H](CC(N)=O)C(=O)N[C@H](C(=O)NCC(=O)N[C@@H](Cc1c[nH]cn1)C(=O)N[C@@H](CC(N)=O)C(=O)N[C@H](C(=O)N[C@@H](Cc1ccc(O)cc1)C(N)=O)[C@@H](C)O)C(C)C)[C@@H](C)O [Example 17] ({C20 diacid-γGlu}-KCNTATCATQRLAEFLRHSSPNFGAIPSSTNVGHNTY-NH2; disulfide 2-7)	8.8	8.8	8.8	8.8	–	8.8

The remaining lines, values ahead:

Ratio hCT/hAmylin funct. [1]	Ratio hCT/hAmylin funct. [2]	Ratio hCT/hAmylin funct. [3]	Ratio hCT/hAmylin funct. [4]	Ratio hCT/hAmylin funct. (hCTR funct. EC50 divided by hAmylin-R funct. EC50)	Ratio hCT/hAmylin funct. (Table 6i, hCTR funct. EC50 / hAmylin-R funct. EC50)	SMILES
4.9	–	–	–	–	–	CC[C@H](C)[C@H](NC(=O)[C@H](C)NC(=O)CNC(=O)[C@H](Cc1ccccc1)NC(=O)[C@H](CC(N)=O)NC(=O)[C@@H]1CCCN1C(=O)[C@H](CO)NC(=O)[C@H](CO)NC(=O)[C@H](Cc1c[nH]cn1)NC(=O)[C@H](CCCNC(=N)N)NC(=O)[C@H](CC(C)C)NC(=O)[C@H](Cc1ccccc1)NC(=O)[C@H](C)NC(=O)[C@H](C)NC(=O)[C@H](CC(C)C)NC(=O)[C@H](CCCNC(=N)N)NC(=O)[C@H](CCC(N)=O)NC(=O)[C@@H](NC(=O)[C@H](C)NC(=O)[C@@H]1CSSC[C@H](NC(=O)[C@H](CCCNC(=N)N)NC(=O)CNC(=O)CC[C@H](NC(=O)CCCCCCCCCCCCCCCCCCC(=O)O)C(=O)O)C(=O)N[C@@H](CC(N)=O)C(=O)N[C@@H]([C@@H](C)O)C(=O)N[C@@H](C)C(=O)N[C@@H]([C@@H](C)O)C(=O)N1)[C@@H](C)O)C(=O)N1CCC[C@H]1C(=O)N[C@@H](CO)C(=O)N[C@@H](CO)C(=O)N[C@H](C(=O)N[C@@H](CC(N)=O)C(=O)N[C@H](C(=O)NCC(=O)N[C@@H](Cc1c[nH]cn1)C(=O)N[C@@H](CC(N)=O)C(=O)N[C@H](C(=O)N[C@@H](Cc1ccc(O)cc1)C(N)=O)[C@@H](C)O)C(C)C)[C@@H](C)O [Example 101] ({C20 diacid-γGlu}-GRCNTATCATQRLAAFLRHSSPNFGAIPSSTNVGHNTY-NH2; disulfide 3-8 (inferred); C-terminus assumed)
15.0	15.0	15.0	15.0	–	–	CC[C@H](C)[C@H](NC(=O)[C@H](C)NC(=O)CNC(=O)[C@H](Cc1ccccc1)NC(=O)[C@H](CC(N)=O)NC(=O)[C@@H]1CCCN1C(=O)[C@H](CO)NC(=O)[C@H](CO)NC(=O)[C@H](Cc1c[nH]cn1)NC(=O)[C@H](CCCNC(=N)N)NC(=O)[C@H](CC(C)C)NC(=O)[C@H](Cc1ccccc1)NC(=O)[C@H](CC(N)=O)NC(=O)[C@H](C)NC(=O)[C@H](CC(C)C)NC(=O)[C@H](CCCNC(=N)N)NC(=O)[C@H](CCC(N)=O)NC(=O)[C@@H](NC(=O)[C@H](C)NC(=O)[C@@H]1CSSC[C@H](NC(=O)[C@@H](N)CCCCNC(=O)CC[C@H](NC(=O)CCCCCCCCCCCCCCCCCCC(=O)O)C(=O)O)C(=O)N[C@@H](CC(N)=O)C(=O)N[C@@H]([C@@H](C)O)C(=O)N[C@@H](C)C(=O)N[C@@H]([C@@H](C)O)C(=O)N1)[C@@H](C)O)C(=O)N1CCC[C@H]1C(=O)N[C@@H](CO)C(=O)N[C@@H](CO)C(=O)N[C@H](C(=O)N[C@@H](CC(N)=O)C(=O)N[C@H](C(=O)NCC(=O)N[C@@H](CO)C(=O)N[C@@H](CCCCN)C(=O)N[C@H](C(=O)N[C@@H](Cc1ccc(O)cc1)C(N)=O)[C@@H](C)O)C(C)C)[C@@H](C)O [Example 35] (H-K([γGlu-C20 diacid])CNTATCATQRLANFLRHSSPNFGAIPSSTNVGSKTY-NH2; disulfide 2-7; N-terminus assumed)
9.6	9.6	9.6	9.6	–	–	CC[C@H](C)[C@H](NC(=O)[C@H](C)NC(=O)CNC(=O)[C@H](Cc1ccccc1)NC(=O)[C@H](CC(N)=O)NC(=O)[C@@H]1CCCN1C(=O)[C@H](CO)NC(=O)[C@H](CO)NC(=O)[C@H](Cc1c[nH]cn1)NC(=O)[C@H](CCCNC(=N)N)NC(=O)[C@H](CC(C)C)NC(=O)[C@H](Cc1ccccc1)NC(=O)[C@H](CC(N)=O)NC(=O)[C@H](C)NC(=O)[C@H](CC(C)C)NC(=O)[C@H](CCCNC(=N)N)NC(=O)[C@H](CCC(N)=O)NC(=O)[C@@H](NC(=O)[C@H](C)NC(=O)[C@@H]1CSSC[C@H](NC(=O)[C@@H](N)CCCCNC(=O)COCCOCCNC(=O)CC[C@H](NC(=O)CCCCCCCCCCCCCCCCCCC(=O)O)C(=O)O)C(=O)N[C@@H](CC(N)=O)C(=O)N[C@@H]([C@@H](C)O)C(=O)N[C@@H](C)C(=O)N[C@@H]([C@@H](C)O)C(=O)N1)[C@@H](C)O)C(=O)N1CCC[C@H]1C(=O)N[C@@H](CO)C(=O)N1CCC[C@H]1C(=O)N[C@H](C(=O)N1CCC[C@H]1C(=O)N[C@H](C(=O)NCC(=O)N[C@@H](CO)C(=O)N[C@@H](CC(N)=O)C(=O)N[C@H](C(=O)N[C@@H](Cc1ccc(O)cc1)C(N)=O)[C@@H](C)O)C(C)C)[C@@H](C)O [Example 54] (H-K([AEEA-γGlu-C20 diacid])CNTATCATQRLANFLRHSSPNFGAIPSPTPVGSNTY-NH2; disulfide 2-7; N-terminus assumed)

— patent publication US8575091B1, “Amylin analogues and pharmaceutical compositions thereof” (Novo Nordisk A/S, priority 2012, dated 2013)
